This note sets out measurements from ChEMBL document CHEMBL1145787, “Synthesis and structure-activity relationship of N-substituted 4-arylsulfonylpiperidine-4-hydroxamic acids as novel, orally active matrix metalloproteinase inhibitors for the treatment of osteoarthritis” (J Med Chem, 2003).

The structures appear in SMILES notation.

The target of one experiment is T1, Interstitial collagenase (Homo sapiens, UniProt P03956).
T1 sequence (P03956 whole entry): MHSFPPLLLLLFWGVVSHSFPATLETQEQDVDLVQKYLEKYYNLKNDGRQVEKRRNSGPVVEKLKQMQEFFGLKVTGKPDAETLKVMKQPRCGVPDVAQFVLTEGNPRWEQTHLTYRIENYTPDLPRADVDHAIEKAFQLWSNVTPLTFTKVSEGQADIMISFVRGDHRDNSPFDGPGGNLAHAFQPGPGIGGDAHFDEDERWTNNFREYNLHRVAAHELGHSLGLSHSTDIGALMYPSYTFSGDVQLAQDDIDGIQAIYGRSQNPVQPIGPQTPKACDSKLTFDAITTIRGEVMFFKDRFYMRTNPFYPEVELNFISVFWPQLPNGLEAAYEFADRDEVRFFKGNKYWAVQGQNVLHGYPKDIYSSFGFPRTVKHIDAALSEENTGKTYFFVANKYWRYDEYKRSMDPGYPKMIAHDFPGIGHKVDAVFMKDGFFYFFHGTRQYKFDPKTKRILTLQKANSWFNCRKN
In words: In vitro inhibitory activity against matrix metalloprotease-1.

The target of experiment [1] is T2, Disintegrin and metalloproteinase domain-containing protein 17 (Homo sapiens, UniProt P78536). In words: In vitro inhibitory activity against tumor necrosis factor alpha converting enzyme (TACE).
T2 sequence (P78536 whole entry, the tested form may be a part): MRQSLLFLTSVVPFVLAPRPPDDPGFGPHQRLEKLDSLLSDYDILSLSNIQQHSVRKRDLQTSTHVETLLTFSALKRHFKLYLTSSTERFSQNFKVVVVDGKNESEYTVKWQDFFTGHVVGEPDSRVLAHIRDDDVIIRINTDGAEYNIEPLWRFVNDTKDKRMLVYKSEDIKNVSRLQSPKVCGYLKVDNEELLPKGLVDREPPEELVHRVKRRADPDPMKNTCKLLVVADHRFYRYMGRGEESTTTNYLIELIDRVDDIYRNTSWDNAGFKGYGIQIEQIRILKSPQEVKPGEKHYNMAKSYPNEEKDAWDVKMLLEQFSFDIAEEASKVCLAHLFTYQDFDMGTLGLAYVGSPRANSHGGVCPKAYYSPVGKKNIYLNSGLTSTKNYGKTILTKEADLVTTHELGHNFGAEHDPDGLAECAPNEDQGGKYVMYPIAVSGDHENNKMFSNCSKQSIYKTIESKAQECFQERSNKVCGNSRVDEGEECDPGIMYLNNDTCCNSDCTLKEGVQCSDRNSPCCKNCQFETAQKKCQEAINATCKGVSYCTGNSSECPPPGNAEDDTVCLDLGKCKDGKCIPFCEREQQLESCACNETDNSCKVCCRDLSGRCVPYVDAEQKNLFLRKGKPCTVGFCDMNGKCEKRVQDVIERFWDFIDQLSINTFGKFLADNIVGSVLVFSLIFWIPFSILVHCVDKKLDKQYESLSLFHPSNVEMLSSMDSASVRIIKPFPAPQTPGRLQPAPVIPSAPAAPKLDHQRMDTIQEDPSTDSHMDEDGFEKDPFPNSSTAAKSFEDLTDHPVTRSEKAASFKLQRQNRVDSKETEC
Experiment [2] in a line: In vivo inhibitory activity against Matrix metalloprotease enzyme by dialysis implant assay, value are relative to activity of CGS-27023 (71+/-2) at 25 mg/kg. po. Type of experiment: functional.
The target of experiment [3] is Matrix metalloproteinase-9 (Homo sapiens, UniProt P14780). As to the kind of experiment: In vitro inhibitory activity against matrix metalloprotease-9.
Chain of Matrix metalloproteinase-9 (P14780 whole entry): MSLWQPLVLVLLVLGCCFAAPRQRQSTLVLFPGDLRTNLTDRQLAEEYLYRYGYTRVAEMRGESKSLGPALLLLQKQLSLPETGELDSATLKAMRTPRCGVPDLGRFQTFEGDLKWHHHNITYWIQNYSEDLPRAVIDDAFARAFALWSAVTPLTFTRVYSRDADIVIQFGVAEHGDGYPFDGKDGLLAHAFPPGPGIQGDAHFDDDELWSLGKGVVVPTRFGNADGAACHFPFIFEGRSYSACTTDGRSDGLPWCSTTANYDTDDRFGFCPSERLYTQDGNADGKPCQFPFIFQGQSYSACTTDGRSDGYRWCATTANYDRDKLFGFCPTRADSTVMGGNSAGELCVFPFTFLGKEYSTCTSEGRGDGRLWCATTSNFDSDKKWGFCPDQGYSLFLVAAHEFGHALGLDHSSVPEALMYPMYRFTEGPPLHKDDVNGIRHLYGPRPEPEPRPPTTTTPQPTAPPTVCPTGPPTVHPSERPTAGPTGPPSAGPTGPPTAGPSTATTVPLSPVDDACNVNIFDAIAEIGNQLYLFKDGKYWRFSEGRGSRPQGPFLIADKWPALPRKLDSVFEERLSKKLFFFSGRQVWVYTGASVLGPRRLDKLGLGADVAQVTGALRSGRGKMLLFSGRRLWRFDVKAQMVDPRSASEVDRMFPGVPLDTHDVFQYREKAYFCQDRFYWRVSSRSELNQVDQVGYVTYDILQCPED
The next experiment has as its target Collagenase 3 (Homo sapiens, UniProt P45452).
The target in experiment [4] is T2, Disintegrin and metalloproteinase domain-containing protein 17.
The nature of experiment [5]: In vivo inhibitory activity against Matrix metalloprotease enzyme by dialysis implant assay, value are relative to activity of CGS-27023 (64+/-3) at 25 mg/kg. po. It counts as functional.
Experiment [6] can be described thus: In vivo inhibition of Matrix metalloprotease enzyme by Sponge-wrapped cartilage assay, value are relative to activity of RS-130830 (27+/-3) at 10 mg/kg. po. bid. Type of experiment: functional.
The next experiment deals with Rattus norvegicus. In words: In vivo inhibition of Matrix metalloprotease enzyme by Sponge-wrapped cartilage assay at 25 mg/kg. po. qd. Type of experiment: functional.

The term IC50 denotes the concentration that gives 50% inhibition. High values mean a need for much substance, low ones inhibition by little substance. For orientation: inhibition in vivo means the share of the control response that was lost under treatment. Lower therefore signals little suppression.

With `O=C(NO)C1(S(=O)(=O)c2ccc(-c3ccco3)cc2)CCN(Cc2ccccc2)CC1`, the results for the IC50 (against Interstitial collagenase; in experiment [1]; in experiment [3]) were 40 nM, 416 nM and 3 nM, respectively. Besides, in experiment [2], at 25 mg/kg the inhibition in vivo was 95%.
With `CCC(CC)Oc1ccc(S(=O)(=O)C2(C(=O)NO)CCN(Cc3ccccc3)CC2)cc1`, the IC50 against Interstitial collagenase turned out to be 3160 nM; on Collagenase 3, 5 nM; in experiment [3], 14 nM; in experiment [4], 39 nM. In [5], the inhibition in vivo at 25 mg/kg was found to be 68%. The same compound registered an inhibition in vivo at 10 mg/kg in experiment [6] of 27%.
For `COc1ccc(S(=O)(=O)C(C)(Cc2ccc(OCCN3CCCCC3)cc2)C(=O)NO)cc1` (stereo unspecified), the Protection in the experiment with Rattus norvegicus was 68%.
